In patent US12606802B2, “Methods and compositions for improving the assembly of adeno-associated viruses (AAVs)” (priority 2019, dated 2026):
Entries after “also recorded” stand apart in the source; their conditions may differ.

Key:
[1] = test system: HEK293 cells; settings: 270 uM; 48 h
Method: General transfection efficiency was assessed visually by imaging EGFP positive cells (EGFP is present in the ITR-flanked transgene plasmid), and cell health was assessed visually by brightfield imaging and quantitatively by ATP levels in drug treated wells (light shading, FIG. 8B).
In these experiments, production plasmids were transfected into HEK293 cells and the appropriate inhibitor was serial diluted and added 4 h later at the concentrations indicated along the x-axis. The inhibitor was added at the same concentrations to a parallel plate and ATP levels were quantified by Cell Titer Glo® to assess cell viability after 48 h of incubation. General transfection efficiency (EGFP; present on ITR-flanked transgene plasmid) and cell morphology (Brightfield), at concentrations listed along the x-axis, were assessed by microscopy at 48 h, immediately before vector harvest from the same well.

[2] = test system: HEK293 cells; assay: Cell viability by ATP levels (Cell Titer Glo); assay type: cell-based; settings: 48 h
[3] = test system: AAV8; assay: AAV8 vector production in HEK293 cells with chemical inhibitors, DRP by qPCR; assay type: cell-based, adeno-associated virus
Method: (§1) Inhibitor-containing media was added to wells and transfection mixtures containing either AAV2 (light bars) or AAV8 (dark bars) production plasmids were added dropwise on top, and vector harvested 48 h later (FIG. 8A). […] To examine whether any of these were not directly inhibiting capsid assembly but rather a result of poor transfection efficiency, an upstream but important factor for vector production, the experiment was repeated adding inhibitors 4 h after transfection mixture was added to allow transfection steps to initiate (FIG. 8B).

[4] = test system: HEK293 cells; assay: General transfection efficiency by imaging EGFP positive cells; assay type: cell-based; settings: for transfection efficiency / EGFP expression: inhibitor 4 h post transfection
[5] = test system: AAV2; assay: AAV2 vector production in HEK293 cells with chemical inhibitors, DRP by qPCR; assay type: cell-based, adeno-associated virus
Method: as §1

[6] = test system: AAV2 and AAV8 vector; assay: Vector production in HEK293 cells with chemical inhibitors, DRP by qPCR, serotype not separated; assay type: cell-based, adeno-associated virus
Method: as §1

[7] = test system: PEI-mediated transfection of plasmid DNA; settings: cited from earlier work
[8] = test system: VP proteins; settings: cited from earlier work
[9] = test system: AAV; settings: cited from earlier work
[10] = higher concentrations, particularly 90-270 uM, 4 h post transfection
[11] = inhibitor added 4 h after transfection, harvest 48 h
[12] = inhibitor added immediately before transfection, harvest 48 h
[13] = 6.25 μM, inhibitor added 4 h after transfection

Question: Which results are given for `NS(=O)(=O)c1ccc(N/N=C2\C(=O)Nc3ccc(Br)cc32)cc1` [Cdk2 inhibitor II]?
Answer: cell morphology [1]: affected; cell viability (as assayed by ATP) ([2]; 90-270 uM): without affecting cell viability; AAV8 production [3, 10]: dose-dependent effect; decrease in AAV8 titer ([3]; higher concentrations, 4 h post transfection): ~10 fold; gross transfection efficiency (by EGFP visualization) ([4]; 90-270 uM, 48 h): without affecting; AAV2 production [5, 10]: dose-dependent effect

Question: With `O=[N+]([O-])c1ccc(F)c([N+](=O)[O-])c1` [FDNB] as the compound, how does the “per cell vector production (GC per living cell)” value ([6]; 4 h post transfection, likely artefact of ATP-based viable cell count) read?
Answer: Its value is “increase”.

Question: Which vector titer [6, 11] does the source give for `Cc1ccc2nc(CN(CCN(Cc3nc4ccc(C)cc4[nH]3)Cc3nc4ccc(C)cc4[nH]3)Cc3nc4ccc(C)cc4[nH]3)[nH]c2c1` [NSC348884] here?
Answer: The vector titer was “not seen”.

Question: And the vector titer [6, 12]?
Answer: Its vector titer is “large effect”.

Question: Which vector titer [6, 11] does the source give for apoptazole here?
Answer: The vector titer was “strong dose dependent decrease”.

Question: And the “cell death as assayed by ATP abundance” value ([2]; 300 uM)?
Answer: Its value is “did not show appreciable cell death”.

Question: And the “vector production (GC per living cell as percentage of DMSO control)” value ([3]; AAV8, lowest level reached, inhibitor 4 h post transfection)?
Answer: The value was 5%.

Question: And the “expression of EGFP” value ([4]; 300 uM, 48 h)?
Answer: The value was “robust expression of EGFP”.

Question: And the “transfection efficiency / EGFP expression” value ([4]; 48 h)?
Answer: Its value is “no apparent loss”.

Question: What does the source list for `CO/C1=C\C(C)=C\[C@@H](C)[C@@H](O)[C@@H](C)C/C(C)=C/C=C/[C@H](OC)[C@@H]([C@@H](C)[C@@H](O)[C@H](C)[C@@]2(O)C[C@@H](O)[C@H](C)[C@@H](C(C)C)O2)OC1=O` [Bafilomycin A1]?
Answer: reduction in vector titer ([6]; added 4 h post transfection at low doses): 10 fold; vector production ([6]; inhibitor added immediately before transfection, all doses, harvest 48 h): abolished vector production to background levels; vector titer [6, 12]: abolished vector production; PEI-mediated transfection of plasmid DNA [7]: blocks PEI-mediated transfection of plasmid DNA; VP protein in the absence of AAP [8]: rescue VP protein; also recorded: rescues degradation of some serotype's VP proteins; transfection efficiency ([4]; low doses, added 4 h post transfection): no visibly appreciable effect; AAV infection [9]: blocks AAV infection

Question: For `NS(=O)(=O)OC[C@H]1C[C@@H](Nc2ncncc2C(=O)c2ccn(Cc3cccc(Br)c3)n2)C[C@@H]1O` [ML-792], which “transfection efficiency / EGFP expression” value ([4]; 48 h) is on record?
Answer: Its value is “dramatic loss”.

Question: For `O=C1NC(=NCc2cccs2)S/C1=C\c1ccc2ncccc2c1` [Cdk1 inhibitor IV], which vector titer [6, 11] is on record?
Answer: Its vector titer is “did not affect vector titer without concomitant decreases in both cell health and transfection efficiency”.

Question: What about the cell viability ([2]; 6.25 μM, added 4 h after transfection) of the same compound?
Answer: Its cell viability is “without affecting cell viability”.

Question: And the AAV8 titer [3, 13]?
Answer: Its AAV8 titer is “appreciable decrease”.

Question: And the AAV2 production [5, 13]?
Answer: Its AAV2 production is “no effect”.
